Measurements taken from the SangsterLogP compilation.
Peptide text beside a SMILES is read from it. * marks the point of attachment. NHtBu = CC(C)(C)N*

Assays:
[1] = method code SF-RC, from DOI: 10.1021/jm000079i, PMID: 10956218; conditions: pH 7.4
[2] = method code SF-HPLC, from DOI: 10.1021/jm00119a020; conditions: pH 7.4
[3] = method code SF-RC, from DOI: 10.1016/0969-8051(94)00090-7, PMID: 7767321; conditions: pH 7.4
[4] = method code SF-HPLC, from DOI: 10.1023/a:1015823315983, PMID: 1475237; conditions: pH 1.0
[5] = method code SF-AS, from DOI: 10.1021/jm010817i, PMID: 11806714; conditions: pH 7.4
[6] = method code SF-HPLC, from DOI: 10.1016/j.ejps.2013.04.020, PMID: 23624327
[7] = method code SF-HPLC, from DOI: 10.1002/jps.23140, PMID: 22499243; conditions: pH 7.4
[8] = method code SF-HPLC, from DOI: 10.1021/js970291i, PMID: 9523983; conditions: pH 7.4
[9] = method code SF-HPLC, from DOI: 10.1016/j.bmcl.2010.02.057, PMID: 20231095; conditions: pH 7.4
[10] = method code SF-AS, from DOI: 10.1081/jlc-100104900; conditions: pH 1.0
[11] = not given; remark: listed apart in the source
[12] = method code SF-HPLC, from DOI: 10.1016/j.ejpb.2006.11.002, PMID: 17182232; conditions: pH 7.4
[13] = method code SF, from PMID: 8265709; conditions: pH 7.4
[14] = not given; remark: listed apart in the source
[15] = method code SF-RC, from DOI: 10.1016/j.nucmedbio.2011.12.002, PMID: 22321533
[16] = pH 7.4
[17] = not given; remark: listed apart in the source
[18] = method code SF, from DOI: 10.3109/00498258709043934, PMID: 3564538
[19] = not given; remark: listed apart in the source
[20] = pH 13.0
[21] = method code SF-HPLC, from DOI: 10.1002/jps.2600830120, PMID: 8138917; conditions: pH 7.4
[22] = method code SF-RC, from DOI: 10.1016/j.nucmedbio.2015.07.007, PMID: 26330158; conditions: pH 7.4
[23] = not given; remark: listed apart in the source
[24] = method code SF-AS, from DOI: 10.1021/jm00254a028, PMID: 4845386
[25] = not given; remark: listed apart in the source
[26] = method code SF-HPLC, from DOI: 10.1023/a:1015968113838, PMID: 3247280; conditions: pH 7.4
[27] = not given; remark: listed apart in the source
[28] = method code SF, from DOI: 10.1016/0006-2952(79)90295-8, PMID: 36087
[29] = not given; remark: listed apart in the source
[30] = method code SF-RC, from DOI: 10.1016/s0969-8051(03)00049-0, PMID: 12900282; conditions: pH 7.4
[31] = method code SF-AS, from THAKUR, B.; Mehta, U.; TIPNIS, P. (1981). Ortho effect in partition coefficients of some o-benzyloxybenzamides. Indian J Pharm Sci, 43(6)224-226.
[32] = method code SF-RC, from DOI: 10.1023/a:1015892313856, PMID: 1495896; conditions: pH 7.2
[33] = method code SF, from Rodriguez, L.; Zecchi, V.; Tartarini, A. (1984). Partition rate of some nonsteroidal anti-inflammatory agents in a three-phase water/n-octanol/water system. Pharmaceutical Acta Helvetiae, 59(3)95-96.; conditions: pH 12.0
[34] = method code SF-RC, from DOI: 10.1002/jps.2600651126, PMID: 11336; conditions: pH 2.0
[35] = method code SF-RC, from DOI: 10.1016/s0969-8051(01)00264-5, PMID: 11711307; conditions: pH 7.4
[36] = not given; remark: listed apart in the source
[37] = not given; remark: listed apart in the source
[38] = method code SF, from DOI: 10.1016/0378-5173(85)90102-4; conditions: pH 8.0
[39] = method code SF-AS, from DOI: 10.1021/jm00392a004, PMID: 3625703; conditions: pH 6.9
[40] = method code SF-RC, from DOI: 10.1016/s0969-8051(03)00050-7, PMID: 12900283; conditions: pH 7.4
[41] = method code SF-AS, from DOI: 10.1248/cpb.41.171; conditions: pH 7.0
[42] = method code SF, from DOI: 10.1584/jpestics.8.69
[43] = method code SF-HPLC, from DOI: 10.1897/08-203.1, PMID: 18702564
[44] = method code SF-GLC, from DOI: 10.1016/0048-3575(86)90042-8

**Q.** With CN(C)c1ccccc1Sc1ccc(C#N)cc1N as the compound, how does the logD [1] read?
**A.** 2.71

**Q.** Which logD [2] does the source give for CCCN1CCO[C@H]2c3cc(O)ccc3OC[C@@H]21 here?
**A.** 1.97

**Q.** Which logD [3] does the source give for CC(C)(C(=O)c1ccccc1I)c1cccnc1 here?
**A.** 2.19

**Q.** For C[C@H](CS)C(=O)N1C[C@@H](Sc2ccccc2)C[C@H]1C(=O)O (relative stereo), which logD [4] is on record?
**A.** 2.16

**Q.** Which logD [5] does the source give for CCCC(=O)NCCC(=O)NCc1c(O)c(=O)cc(C)n1C here?
**A.** -0.7

**Q.** Which logP [6] does the source give for O=C(/C=C/c1ccc(O)cc1)c1ccc(O)cc1O here?
**A.** 1.91

**Q.** For CCCCCCOP1(=O)COC(Cn2ccc(N)nc2=O)CO1 (stereo not given), which logD [7] is on record?
**A.** 2.84

**Q.** Which logP does the source give for COC(=O)C1(O)c2ccccc2-c2ccc(Cl)cc21 (stereo not given) here?
**A.** 2.86

**Q.** For Cc1ccnc2c1NC(=O)c1cccnc1N2C1CC1, which logD [8] is on record?
**A.** 1.81

**Q.** For CCCC(=O)OC(C)OC(=O)c1sc2cc(O)c(O)cc2c1Cl (stereo not given), which logD [9] is on record?
**A.** 2.16

**Q.** For CC(C(=O)O)c1cccc(Oc2ccccc2)c1 (stereo not given), which logD [10] is on record?
**A.** 3.45

**Q.** With O=CC1=CC=C2C(C(=O)O)CCN2c2cc(Br)ccc21 (stereo not given) as the compound, how does the logP [11] read?
**A.** 3.6

**Q.** For CC(C)OC(=O)C(NC(=O)c1cccnc1)n1cc(F)c(=O)[nH]c1=O (stereo not given), which logD [12] is on record?
**A.** 0.62

**Q.** With Cc1c(C(C)C)c(=O)n(-c2ccccc2)n1C as the compound, how does the logD [13] read?
**A.** 1.94

**Q.** With CC(C)NCC(O)c1ccc2ccccc2c1 (stereo not given) as the compound, how does the logP [14] read?
**A.** 3

**Q.** For Cc1cn(C2CC(O)C(CO)S2)c(=O)n(Cc2cn(CCF)nn2)c1=O (stereo not given), which logP [15] is on record?
**A.** -0.86

**Q.** With CC(=O)OCC(CCn1cnc2cnc(N)nc21)COC(C)=O as the compound, how does the logD [16] read?
**A.** 0.32

**Q.** Which logP [17] does the source give for COc1ccc2cc(CCC(C)=O)ccc2c1 here?
**A.** 3.45

**Q.** With CCC(C)OC(=O)C(C(=O)OC(C)CC)=C1SC=CS1 (stereo not given) as the compound, how does the logP [18] read?
**A.** 4.89

**Q.** With CN(C)Cc1cc(I)ccc1Sc1ccc(Cl)cc1N as the compound, how does the logP [19] read?
**A.** 3.31

**Q.** Which logD [20] does the source give for C=CCOc1ccccc1OCC(O)CNC(C)C (stereo not given) here?
**A.** 2.25

**Q.** Which logD [21] does the source give for CC(C(N)=O)c1ccc(-c2ccccc2)c(F)c1 (stereo not given) here?
**A.** 3.2

**Q.** For O=C1Nc2c(Cl)ccc(OCCF)c2C2(CCCCC2)N1, which logD [22] is on record?
**A.** 2.9

**Q.** For Cc1cc2cc[nH]c2c(C(=O)Nc2ncccc2C)n1, which logP [23] is on record?
**A.** 5.3

**Q.** For OC1c2ccccc2C2CCCCC2C1O (stereo not given), which logP [24] is on record?
**A.** 2.47

**Q.** With Cn1ccc2cc(-c3nc4ccc(F)nc4o3)ccc21 as the compound, how does the logP [25] read?
**A.** 3.42

**Q.** With CCCCC(=O)OCC1OC(n2cc(I)c(=O)[nH]c2=O)CC1O (stereo not given) as the compound, how does the logD [26] read?
**A.** 1.44

**Q.** With CC[C@@H](c1cccc(O)c1)[C@@H](C)CN(C)C as the compound, how does the logP [27] read?
**A.** 2.77

**Q.** Which logP [28] does the source give for CC(C)NCC(O)COc1cccc(CC(N)=O)c1 (stereo not given) here?
**A.** 0.22

**Q.** Which logP [29] does the source give for OCCN1CCC(COc2ccc(I)cc2)CC1 here?
**A.** 4

**Q.** For CNc1ccc(/C=C/c2ccc(O)cc2)cc1, which logD [30] is on record?
**A.** 2.36

**Q.** For COc1ccc(COc2ccccc2C(N)=O)cc1, which logP [31] is on record?
**A.** 1.63

**Q.** Which logD [32] does the source give for CC(=O)NC(C)C(=O)N1CCCC1C(=O)NC(C)(C)C (stereo not drawn) (Ac-Ala-Pro-NHtBu; configuration not given here) here?
**A.** -0.39

**Q.** For CCc1c(OC)cc(Cc2cnc(N)nc2N)cc1OC, which logD [33] is on record?
**A.** 2.72

**Q.** With CSc1ccc2oc3ccc(C(=O)O)cc3c(=O)c2c1 as the compound, how does the logD [34] read?
**A.** 3.4

**Q.** With CN(C)c1ccc(-c2nc3ccc(I)cc3o2)cc1 as the compound, how does the logD [35] read?
**A.** 2.09

**Q.** For COCCOc1ccccc1S(=O)(=O)NC(=O)Nc1nc(OC)nc(OC)n1, which logP [36] is on record?
**A.** 1.71

**Q.** Which logP [37] does the source give for O=C1CN=C(c2cccc(Br)c2)c2cc(Br)ccc2N1 here?
**A.** 3.88

**Q.** For NC(Cc1ccccc1)C(=O)OCn1ncc2c(=O)[nH]cnc21 (racemic), which logD [38] is on record?
**A.** 0.4

**Q.** With CCCCC1(c2ccncc2)CCC(=O)NC1=O (stereo not given) as the compound, how does the logD [39] read?
**A.** 1.68

**Q.** Which logD [40] does the source give for CN(C)c1ccc2c(c1)Cc1cc(I)ccc1-2 here?
**A.** 2.47

**Q.** For Cc1cc(-n2[nH]c3c(cnc4ccccc43)c2=O)cs1, which logD [41] is on record?
**A.** 1.58

**Q.** For CC(C(c1ccccc1)c1ccccc1)[N+](=O)[O-] (stereo not given), which logP [42] is on record?
**A.** 3.91

**Q.** For CC(C)(c1ccc(O)cc1)c1ccc(O)cc1, which logP [43] is on record?
**A.** 3.41

**Q.** For ClC1(Cl)CC1(c1ccccc1)c1ccccc1, which logP [44] is on record?
**A.** 4.88
